In patent publication US20260069619A1, “Treatment of Dry Eye Disease Using Mitochondrially Targeted Antioxidants” (MITOTECH S.A., priority 2022, published 2026):

Columns and labels:
[1] = tested on: subjects with dry eye syndrome; assay: VISTA-1 clinical study (NCT03764735): central corneal fluorescein staining; type: in vivo, human; conditions: for Change from baseline in central corneal fluorescein staining, ANCOVA model LS Mean (SE) / Difference in Means, Active - Placebo (two-sample t-test), central corneal fluorescein staining change: 57 days, mITT; for Change from baseline in central corneal fluorescein staining, Mean (SD): after 57 days, mITT population, scale 0-4; for Change from baseline in central fluorescein staining, LS Mean: ITT subgroup, observed data only
Source text: The VISTA-1 clinical study (NCT03764735) evaluated ophthalmic solutions with different concentrations of SkQ1 for various aspects of safety and effectiveness compared to placebo (vehicle) for treatment of various signs and symptoms of DED. The vehicle was an artificial tear treatment used as a control.
The VISTA-1 study reported change of level of corneal fluorescein staining from baseline to day 57. The level of corneal fluorescein scale ranged from 0 to 4, where level 0=none and level 4=severe. VISTA-1 reported a change in symptoms such as subject-reported grittiness from baseline to day 57, where the scale ranged from 0 to 5 for each symptom, where 0=none and 5=worst. Study subjects were carefully monitored for any adverse events.
(§1) In addition to the reported data, observed data collected during the VISTA-1 and VISTA-2 clinical studies were analyzed in an ITT subgroup with an unanesthetized Schirmer's Test ≥7 mm at baseline (initial evaluation).
(§2) In both VISTA-1 and VISTA-2, post-hoc analyses were conducted on observed data for the ITT subgroup including subjects with an unanesthetized Schirmer's test score of ≥7 mm at baseline, with observed data only to evaluate change from baseline in central fluorescein staining. Table 4 summarizes the results for subjects with unanesthetized Schirmer's test score of […] at baseline. […] In VISTA-2, with increased sample size, significant improvement was confirmed in this subgroup (pANCOVA=0.0168). In Table 4, the change from baseline in central fluorescein staining for the ITT subgroup with unanesthetized Schirmer's test score of ≥7 mm at baseline is provided with observed data only.
(§3) A similar subgroup, as described above, was also analyzed in post-hoc analyses for both VISTA-1 and VISTA-2 to evaluate the proportion of subjects with clearing of corneal fluorescein staining in the central region. […] In VISTA-2, with increased sample size, significant improvement was confirmed (pLogistic regression=0.0049, pPearson chi-squared=0.0033, pFisher's exact test=0.0037). In Table 5, the proportion of study subjects with clearing of corneal fluorescein staining in the central corneal region, for the ITT Subgroup with unanesthetized Schirmer's test score of ≥7 mm at baseline is presented, with observed data only.

[2] = tested on: subjects with dry eye syndrome; assay: VISTA-2 clinical study (NCT04206020): central corneal fluorescein staining; type: in vivo, human; conditions: for Change from baseline in central fluorescein staining, LS Mean: 1.55 μg/mL SkQ1, ITT subgroup, observed data only
Protocol: The VISTA-2 (NCT04206020) clinical study reported results of a dose of 1.55 μg/mL SkQ1 compared to placebo (vehicle). VISTA-2 reported a measured change of ocular discomfort scale. The scale ranged from 0 to 4 with 0=no discomfort and 4=constant discomfort from baseline to Day 57. VISTA-2 reported a measured change of level of conjunctival fluorescein staining (sum of temporal and nasal regions). The scale in each region ranged from 0 to 4, with 0=no staining and 4=confluent staining from baseline to day 57. Study subjects were carefully monitored for any adverse events.
as §1, §2, §3

[3] = tested on: subjects with dry eye syndrome; assay: VISTA-2 clinical study: best corrected visual acuity (BCVA-logMAR); type: in vivo, human; conditions: blurred vision [OSDI 4]≥1, poor vision [OSDI 5]≥1 at baseline
Source text: Visual acuity can be measured by a health care provider to provide a sign of DED. The visual acuity can be a best corrected visual acuity (BCVA) of an eye or of both eyes. A logarithm of the minimum angle of resolution (LogMAR) chart such, for example, a Bailey-Lovie chart or an Early Treatment Diabetic Retinopathy Study chart can be utilized to measure BCVA. The number of letters read correctly by a subject can be converted to logMAR scores. The VISTA-2 (NCT04206020) clinical study reported results of a dose of 1.55 μg/mL SkQ1 compared to placebo (vehicle). VISTA-2 reported a measured change of ocular discomfort scale. The scale ranged from 0 to 4 with 0=no discomfort and 4=constant discomfort from baseline to Day 57. VISTA-2 reported a measured change of level of conjunctival fluorescein staining (sum of temporal and nasal regions). The scale in each region ranged from 0 to 4, with 0=no staining and 4=confluent staining from baseline to day 57. Study subjects were carefully monitored for any adverse events. [table] In VISTA-2, change from baseline in BCVA using a logMAR (BCVA-logMAR) at Visit 3 was evaluated in the ITT subgroup including subjects with Schirmer's test score ≥7 mm, blurred vision [OSDI 4]≥1, and poor vision [OSDI 5]≥1 at baseline. Significant improvement was shown in VISTA-2 with pANCOVA=0.0143. […]

eye = conditions: cited from earlier work
[4] = VISTA-1, 1.55 μg/mL SkQ1, ITT subgroup Schirmer's ≥7 mm at baseline
[5] = VISTA-1, 1.55 μg/mL SkQ1, ITT subgroup Schirmer's ≥7 mm at baseline, of 46 subjects
[6] = 1.55 μg/mL SkQ1, ITT subgroup Schirmer's ≥7 mm at baseline
[7] = 1.55 μg/mL SkQ1, ITT subgroup Schirmer's ≥7 mm at baseline, of 78 subjects

SkQ1
Change from baseline in central corneal fluorescein staining, ANCOVA model LS Mean (SE) ([1]; 0.155 μg/mL SkQ1): −0.31 (0.059)
Difference in Means, Active - Placebo (two-sample t-test), central corneal fluorescein staining change ([1]; 0.155 μg/mL SkQ1): −0.02
Change from baseline in central corneal fluorescein staining, ANCOVA model LS Mean (SE) ([1]; 0.155 μg/mL SkQ1, listed as SkQ): −0.31
Change from baseline in central corneal fluorescein staining, Mean (SD) ([1]; 0.155 μg/mL SkQ1 ophthalmic solution BID): −0.30 (0.816)
Change from baseline in central corneal fluorescein staining, ANCOVA model LS Mean (SE) ([1]; 1.55 μg/mL SkQ1): −0.20 (0.058)
Difference in Means, Active - Placebo (two-sample t-test), central corneal fluorescein staining change ([1]; 1.55 μg/mL SkQ1): 0.08
Change from baseline in central corneal fluorescein staining, ANCOVA model LS Mean (SE) ([1]; 1.55 μg/mL SkQ1, listed as SkQ6): −0.20
Change from baseline in central corneal fluorescein staining, Mean (SD) ([1]; 1.55 μg/mL SkQ1 ophthalmic solution BID): −0.20 (0.763)
Treatment effect on the central fluorescein staining sign of dry eye vs placebo ([1]; 0.155 and 1.55 μg/mL SkQ1 ophthalmic solution, all treatment groups): no statistically significant beneficial treatment effect
Proportion of Subjects with Fluorescein Staining in the Central Region (>0 Score) [1, 4]: (84.8%)
Proportion of Subjects without Fluorescein Staining in the Central Region (=0 Score) [1, 4]: (15.2%)
Number of Subjects with Fluorescein Staining in the Central Region (>0 Score) [1, 5]: 39
Number of Subjects without Fluorescein Staining in the Central Region (=0 Score) [1, 5]: 7
Change from baseline in central fluorescein staining, LS Mean ([1]; VISTA-1, 1.55 μg/mL SkQ1, unanesthetized Schirmer's test <7 mm at baseline): −0.20
Change from baseline in central fluorescein staining, LS Mean ([1]; VISTA-1, 1.55 μg/mL SkQ1, unanesthetized Schirmer's test ≥7 mm at baseline): −0.46
Odds Ratio, Logistic Regression, clearing of central corneal fluorescein staining, 1.55 μg/mL SkQ1 - Placebo ([1]; VISTA-1, ITT subgroup Schirmer's ≥7 mm at baseline): 7.57
Proportion of Subjects with Fluorescein Staining in the Central Region (>0 Score) [2, 6]: (83.3%)
Proportion of Subjects without Fluorescein Staining in the Central Region (=0 Score) [2, 6]: (16.7%)
Number of Subjects with Fluorescein Staining in the Central Region (>0 Score) [2, 7]: 65
Number of Subjects without Fluorescein Staining in the Central Region (=0 Score) [2, 7]: 13
Change from baseline in central fluorescein staining, LS Mean ([2]; unanesthetized Schirmer's test <7 mm at baseline): −0.156
Change from baseline in central fluorescein staining, LS Mean ([2]; unanesthetized Schirmer's test ≥7 mm at baseline): −0.43
Odds Ratio, Logistic Regression, clearing of central corneal fluorescein staining, 1.55 μg/mL SkQ1 - Placebo ([2]; ITT subgroup Schirmer's ≥7 mm at baseline): 6.73
BCVA-logMAR change from baseline, LS Mean (SE) ([3]; 1.55 μg/mL SkQ1, ITT subgroup Schirmer's <7 mm): −0.0 (0.0137)
BCVA-logMAR change from baseline, LS Mean (SE) ([3]; 1.55 μg/mL SkQ1, Visit 3, ITT subgroup Schirmer's ≥7 mm): −0.012 (0.0143)
dose at which mild ocular toxicity is observed (eye; in vivo): 45 μg/eye/day
no observed adverse effect level (NOAEL) for ocular toxicity (eye; per eye per day): 4.5 μg/eye/day
